Experimental findings from publication PMC9405466, “Mechanistic Insight into the Enzymatic Inhibition of β-Amyrin against Mycobacterial Rv1636: In Silico and In Vitro Approaches” (Biology, 2022) are described below.

In data set [1] the target is T1, Rv1636 (Mycobacterium tuberculosis, UniProt P9WFC9). As to the kind of experiment: malachite green ATPase inhibition assay. The conditions noted are these: ATP as substrate; TMD buffer pH 8.0, 10 mM MgCl2. It counts as biochemical.
Data set [2] addresses T1, Rv1636. Kind of data set: isothermal titration calorimetry (VP-ITC), one-site model. It counts as binding. The note with it: read-out: Ka1 (converted). From the text:
isothermal titration calorimetry (VP-ITC), one-site model on Rv1636
(ITC needs no label: the signal is the heat of the interaction.)

Data set [3] concerns Nc1ncnc2c1ncn2[C@@H]1O[C@H](COP(=O)(O)OP(=O)(O)OP(=O)(O)O)[C@@H](O)[C@H]1O. As to the kind of experiment: purified protein. The conditions noted are these: 50 mM Tris pH 8.0, 10 mM MgCl2, 1 mM DTT, 0-80 µM ATP, 5 µM Rv1636, 1 h.

T1 sequence (P9WFC9 whole entry, looked up): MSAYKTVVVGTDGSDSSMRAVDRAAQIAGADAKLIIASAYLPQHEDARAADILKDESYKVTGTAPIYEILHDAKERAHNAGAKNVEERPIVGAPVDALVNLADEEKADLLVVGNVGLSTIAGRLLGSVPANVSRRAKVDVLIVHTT

Turning to `CC1(C)CC[C@]2(C)CC[C@]3(C)C(=CC[C@@H]4[C@@]5(C)CC[C@H](O)C(C)(C)[C@@H]5CC[C@]43C)[C@@H]2C1` [β-Amyrin], on Rv1636 [1], the ATPase activity result was “in the presence of an increasing concentration of β-Amyrin, the result showed a consistent reduction”. Moreover, at Rv1636 [2], the Kd is 17.8 µM.

Consider “Rv1636 (Mycobacterium tuberculosis H37Rv)”, for which, in data set [3], the Km is on record as 5.187 ± 0.281 µM and the kcat stood at 0.000883 ± 1.7e-05 s⁻¹.

The term Km denotes the substrate concentration at which the rate is half of its maximum. A word on the kcat: it is the maximal rate divided by the concentration of active sites.
